“Also recorded” adds a separate entry of the source. Read-outs that look alike come from different tables or passages of the source.
How the values were obtained:
GSK-3β = GSK-3β Ser9 phosphorylation by immunoblot in PC3 cells; type: cell-based, human; details: densitometry, sodium selenate 500 μM 3 h, LY294002 50 μM 1 h
Source text: The metabolic effects of insulin on glycogen synthesis are mediated by glycogen synthase kinase-3 (GSK-3), a direct downstream substrate of Akt. GSK-3 is a ubiquitously expressed serine/threonine kinase that phosphorylates and inactivates glycogen synthase. In response to activation of the insulin receptor, Akt phosphorylates and inactivates the repressor GSK-3, thereby stimulating glycogen synthesis [Cross et al., 1995]. […] Resolved whole cell lysates were subjected to immunoblot analysis with an antibody that specifically recognizes GSK-3β only when phosphorylated at Ser9, a site critical for its kinase activity, and comparison made with the cytoskeletal protein β-tubulin as a loading control.

[1] = tested on: PC3 prostate carcinoma cells; assay: Intracellular redox state assay (DCFDA, flow cytometry)
Protocol: 1×10^6 PC3 prostate carcinoma cells were plated in 60 mm dishes, allowed to attach for 8 h, and serum starved overnight. Cells were incubated with DCFDA 5 μM for 15 min prior to treatment.
The proportion of fluorescent cells was then determined by flow cytometry.
Intracellular redox state was determined using 2′,7′-dichlorodihydrofluorescein diacetate (DCFDA). […] Cells were equilibrated with 5 μM of DCFDA for 15 min prior to various treatments. Adherent cells were then harvested, washed twice with PBS and the proportion of fluorescent cells determined immediately by flow cytometry.

[2] = target: T1, purified human PP2A A-C dimer (Homo sapiens, UniProt P67775); assay: Free sulfhydryl groups in purified PP2A (Ellman's assay); type: biochemical; details: 0.01 U PP2A, 10 mM of each agent, 15 min at 37° C.
T1 construct: purified PP2A A-C dimer purified from human red blood cells; purchased Upstate 14-111 (lot #28002); host or cells: human red blood cells (native purification)
Source text: Inactivating reversible oxidation of protein phosphatases involves the modification of a critical cysteine residue within the catalytic domain, ultimately leading to the formation of either intramolecular disulphide or sulphenyl-amide bonds. […] Ellman's reagent (5,5′-Dithio-bis(2-nitrobenzoic acid), DTNB) rapidly forms a disulphide bond with free sulfhydryl groups with the release of chromogenic thiolate ions. […] The quantity of free sulfhydryl groups present within the phosphatase was then determined by the addition of Ellman's reagent and subsequent measurement of absorbance at 412 nm (FIG. 5C).
The change in free sulfhydryl groups in purified PP2A following various treatments was determined using Ellman's Reagent. To 0.01 U of PP2A was added to 37.5 μl of dilution buffer (30 mM Tris-HCl, 3 mM EDTA, pH 8.2), 12.5 μl DTNB reagent (Ellman's reagent) and 200 μl of methanol. Samples were incubated for 5 min at RT, and then extinction measured in duplicate for each at 412 nm.

PP2A = target: T2, PP2A (Homo sapiens, UniProt P67775); assay: PP2A immunoprecipitation from treated PC3 cells and phosphatase assay; type: cell-based; details: PC3 cells treated 1 hour; sodium selenate 500 μM, endothall A 100 μM
T2 construct: the phosphatase activity of the general pool of intracellular PP2A; endogenous in cells; host or cells: PC3 prostate carcinoma cells
Protocol: Free phosphate was removed by passing cell lysates through desalting columns, and measured phosphatase activity using a phosphor-serine peptide and malachite green.
1×10^6 PC3 cells were plated in 60 mm plates and allowed attach for 8 h, then serum starved over night. Following various treatments as indicated, the media was aspirated and cells washed once with TBS. Cells were lysed in 0.3 ml of lysis buffer (20 mM Tris-HCl, pH 7.0, 1% Igepal-CA, 2 mM EDTA, 2 mM EGTA, 1× Complete Protease Inhibitor Cocktail) and phosphates removed by passing the lysate through a 2 ml Zeba Desalt Spin Column (Pierce #89890). Protein concentration of the desalted lysate was determined by the BCA assay as previously described. 100-150 μg of total protein was immunoprecipitated with 4 μg of anti-PP2A monoclonal antibody and 30 μl of Protein A-sepharose slurry at 4° C. for 2 h. Samples were then pelleted at 14,000 rpm for 1 min, washed three times in excess TBS and once with pNPP assay buffer. After the final spin all of the supernatant was carefully removed and 500 μM of phosphor-threonine peptide in a final volume of 80 μl added to the beads. Samples were incubated at 30° C. for 10 min with agitation, and the reaction terminated by the addition of malachite green solution. Absorbance was read at 590 nm for each sample in duplicate.

Akt = Akt phosphorylation by immunoblot in PC3 prostate carcinoma cells; type: cell-based, human; details: for effect of hydrogen peroxide on sodium selenate induced reduction of Akt phosphorylation: sodium selenate 500 μM; for Akt activation: ratio of phosphorylated Akt to total Akt versus control: serum starved PC3 cells, 500 μM, 1 hour, densitometry
Protocol: Such dephosphorylation may be the result of a direct inhibitory effect on the Akt protein itself, or alternatively, can be similarly achieved indirectly by boosting a negative regulator or inhibiting a positive regulator of Akt phosphorylation. […] PC3 prostate carcinoma cells were plated in 100 mm dishes, and when 70-80% confluent serum starved overnight. […] Cells were lysed, and the level of Akt Ser473 phosphorylation determined by immunoblot analysis with an activation specific antibody, and comparison made to levels of Akt protein expressed. To determine the effect on purified Akt, similarly plated but untreated PC3 cells were lysed in RIPA (minus phosphatase inhibitors), a stringent cell lysis buffer that minimizes maintenance of protein-protein complexes. […] The immunoprecipitated protein was then resolved and the level of activated Akt determined by immunoblot analysis as described above.
A reduction in net Akt activity could be achieved indirectly by either preventing the initial Akt phosphorylation, or alternatively, increasing Akt dephosphorylation [Kohn et. al. 1996]. […] Initially okadaic acid, a polyether toxin from red-tide algae (and causative agent of diarrhoetic shellfish poisoning) which inhibits the phospho-protein phosphatases PP1 and PP2A, two phosphatases implicated in the regulation of Akt dephosphorylation was used [Fernandez et al., 2002]. 5×10^5 PC3 prostate carcinoma cells were plated per well of a 6 well plate, allowed attach for 8 h, and then serum starved overnight. […] Lysed cells were resolved by SDS-PAGE, then probed for Akt phosphorylation at the Ser473 residue by immunoblot analysis with an antibody that specifically recognizes Akt when phosphorylated at this site, and comparison made with the total levels of Akt protein expressed (FIG. 2A).
This panel included tautamycin 500 nM (PP1), okadaic acid 500 nM (low dose PP2A>PP1), endothall A (PP2A) 100 μM, calyculin A 2 nM (low dose PP1>PP2A), calyculin A 10 nM (high dose inhibits PP1 and PP2A) and cyclosporine A 400 ng/ml (PP2B). […] Again, lysed cells were resolved by SDS-PAGE, then membranes probed for Akt phosphorylation at the Ser^473 residue by immunoblot analysis with an antibody that specifically recognizes Akt when phosphorylated at this site, and comparison made with the total levels of Akt protein expressed.
5×10^5 PC3 prostate carcinoma cells were plated per well in a 6-well plate, allowed to attach for 8 h, and then serum starved overnight. […] Equal amounts of whole cell lysates were resolved, and then subjected to immunoblot analysis to determine the level of phosphorylated Akt Ser^473. Comparison was then made with the total level of Akt protein expressed.
The phosphorylation status of Akt in whole cell lysates was determined using activation specific antibodies.
Other inorganic (sodium selenite, selenium dioxide, selenium sulphide and selenious acid) and organic (methylselenocysteine, selenocystine) selenium species were tested for their ability to affect Akt activation. All forms were dissolved in water with the exception of selenium sulphide which was solubilised in DMSO, and added to serum starved PC3 cells at a concentration of 500 μM for 1 hour, Whole cell lysates were then resolved, and the activation status of Akt determined by immunoblotting with an antibody that specifically recognizes Akt when phosphorylated at the Ser473 site, as well as the total level of Akt expression (pan Akt). To quantify the degree of Akt activation, immunoblots were digitalised, and the ratio of phosphorylated Akt to total Akt determined by densitometry.

[3] = target: T3, human PP2A A-C heterodimer (Homo sapiens, UniProt P67775); type: biochemical
T3 construct: purified PP2A A-C dimer purified from human red blood cells; purchased Upstate 14-111 (lot #28002); host or cells: human red blood cells (native purification)
Protocol: In initial assays a chemical substrate of phosphatase enzymatic action, para-nitrophennylphosphate (pNPP) was used, which following hydrolysis of the phosphate moiety generates para-nitrophenol, an intensely yellow chromogen which is soluble under alkaline conditions. […] Absorbance of each sample was measured in duplicate at 405 nm with 590 nm as a reference. PP2A activity was calculated using the following equation: activity=(sample vol in liters)×A405/1.78×104M^−1 cm^−1 (extinction coefficient)×0.25 cm×15 minutes×0.05 U enzyme Data is presented as mean relative phosphatase activity ±SEM from at least three independent experiments.
Para-nitrophennylphosphate (PNPP) is a chemical substrate of phosphatase enzymes, which following hydrolysis of the phosphate moiety generates para-nitrophenol, an intensely yellow chromogen, soluble under alkaline conditions. In assays measuring relative phosphatase activity, 0.05 U of purified PP2A was mixed with 5 μl of 40 mM NiCl2 and 5 μl of BSA solution (5 mg/ml) in a microcentrifuge tube. Various treatments were added as indicated, and the volume adjusted to 80 μl with pNPP assay buffer. Samples were pre-incubated at 37° C. for 15 min. pNPP substrate was freshly prepared before each assay by dissolving 1.5 mg/ml pNPP in 50 mM Tris-HCl, pH 7.0. To start the phosphatase reaction, 120 μl of pNPP substrate was added, and samples incubated for a further 15 min at 37° C. Absorbance of each sample was measured in duplicate at 405 nm with 590 nm as a reference. PP2A activity was calculated using the following equation: activity=(Sample volume in liters)×A405/1.78×10^4M^−1cm^−1 (Extinction coefficient)×0.25 cm×15 min×0.05 U enzyme.

p70S6K = type: cell-based, human; details: PC3 cells; LY294002 50 μM 1 hour, sodium selenate 500 μM 1 hour, okadaic acid 500 nM
Protocol: 5×10^5 PC3 prostate carcinoma cells were plated per well of a 6-well plate, allowed to attach for 8 hours, then serum starved overnight. […] Equal amounts of whole cell lysates (75 μg) were resolved by SDS-PAGE, and the level of p70S6K phosphorylation determined by immunoblot analysis with an antibody that specifically recognizes the p70S6K protein when phosphorylated on Thr389. Comparison is made with the protein loading control β tubulin.

PP2A A-C dimer = target: T4, PP2A A-C dimer (Homo sapiens, UniProt P67775); assay: Phosphopeptide / malachite green assay with purified PP2A; type: biochemical; details: 50 μM of each selenium compound
T4 construct: purified PP2A A-C dimer purified from human red blood cells; purchased Upstate 14-111 (lot #28002); host or cells: human red blood cells (native purification)
Protocol: The amount of inorganic phosphate released by enzymatic activity was determined by the addition of malachite green, and absorbance read at 590 nm. Malachite green forms a stable green complex in the presence of molybdate and orthophosphate, allowing the concentration of inorganic phosphate present to be measured. Data is presented as mean absorbance at 590 nm from at least three independent experiments, ±SEM.
1 mg of synthetic phosphopeptides K-R-pT-I-R-R (Upstate #12-219) and R-R-A-pS-V-A (Upstate #12-220) were dissolved in 1.10-1.285 ml of dH2O to prepare a 1 mM solution, then aliquoted and stored at −20° C. until use. 0.01-0.05 U of purified PP2A A-C dimer purified from human red blood cells, or 0.05 U of rabbit PP1 purified from skeletal muscle was mixed with 500 μM of phosphopeptide and incubated in the presence of various treatments as indicated at 37° C. on a heating block for 15 min. Each reaction was made up to a total volume of 25 μl with pNPP buffer (50 mM Tris-HCl, pH 7.0, 100 μM CaCl2). The enzyme reaction was terminated by adding 100 μl of malachite green solution (0.034% malachite green in 10 mM ammonium molybdate, 1 N HCl, 3.4% ethanol, 0.01% Tween-20). Malachite green forms a stable green complex in the presence of molybdate and orthophosphate, allowing the amount of inorganic phosphate present to be measured. Absorbance was read in duplicate for each sample at 590 nm.

T1 sequence (P67775 whole entry): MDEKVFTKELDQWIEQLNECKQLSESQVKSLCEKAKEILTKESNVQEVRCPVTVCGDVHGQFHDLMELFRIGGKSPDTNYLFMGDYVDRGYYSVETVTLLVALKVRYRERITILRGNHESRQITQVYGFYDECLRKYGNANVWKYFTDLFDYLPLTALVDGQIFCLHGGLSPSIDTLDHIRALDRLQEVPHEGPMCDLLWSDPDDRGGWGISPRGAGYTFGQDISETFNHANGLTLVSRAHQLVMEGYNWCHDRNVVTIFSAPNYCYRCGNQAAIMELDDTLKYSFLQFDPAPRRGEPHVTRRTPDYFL
T1 sequence (P30153 2-589 partner limits assumed): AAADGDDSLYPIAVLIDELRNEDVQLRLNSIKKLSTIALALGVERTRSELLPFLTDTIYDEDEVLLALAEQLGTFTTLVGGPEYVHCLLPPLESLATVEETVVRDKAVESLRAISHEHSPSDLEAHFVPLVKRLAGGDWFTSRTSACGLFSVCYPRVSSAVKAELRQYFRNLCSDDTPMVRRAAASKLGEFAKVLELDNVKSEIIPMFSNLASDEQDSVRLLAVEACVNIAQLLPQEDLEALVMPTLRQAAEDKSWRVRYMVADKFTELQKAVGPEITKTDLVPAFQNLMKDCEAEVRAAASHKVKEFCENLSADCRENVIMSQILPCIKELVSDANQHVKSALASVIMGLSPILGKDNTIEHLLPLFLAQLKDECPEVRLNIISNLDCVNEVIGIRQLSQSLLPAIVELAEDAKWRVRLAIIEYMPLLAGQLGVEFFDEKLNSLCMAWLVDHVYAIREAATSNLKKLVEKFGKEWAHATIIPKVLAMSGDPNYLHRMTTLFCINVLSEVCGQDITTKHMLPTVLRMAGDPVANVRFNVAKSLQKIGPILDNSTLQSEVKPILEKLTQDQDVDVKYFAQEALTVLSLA
T3 sequence (P67775 whole entry): as the sequence (P67775 whole entry) above
T3 sequence (P30153 2-589 partner limits assumed): as the sequence (P30153 2-589 partner limits assumed) above
T2 sequence (P67775 whole entry): as the sequence (P67775 whole entry) above
T2 sequence (P30153 2-589 partner limits assumed): as the sequence (P30153 2-589 partner limits assumed) above
T4 sequence (P67775 whole entry): as the sequence (P67775 whole entry) above
T4 sequence (P30153 2-589 partner limits assumed): as the sequence (P30153 2-589 partner limits assumed) above

Question: For `O=c1cc(N2CCOCC2)oc2c(-c3ccccc3)cccc12` [LY294002, reference compound], which “reduction of GSK-3β phosphorylation levels” value (GSK-3β) is on record?
Answer: The value was ~60%.

Question: With `CC(=O)N[C@@H](CS)C(=O)O` [NAC, N-acetylcysteine] as the compound, how does the “basal proportion of fluorescent cells (ROS)” value ([1]; 1 h, sodium selenate 500 μM, NAC 1 mM) read?
Answer: The value was “small reduction in the basal proportion of fluorescent cells”.

Question: For `CCN1C(=O)C=CC1=O` [NEM, N-ethylmaleimide, reference compound], which “number of free sulfhydryl groups in PP2A” value [2] is on record?
Answer: The value was “significantly reduced the number of free sulfhydryl groups”.

Question: Which results are given for `O=C(O)[C@@H]1[C@H](C(=O)O)[C@H]2CC[C@@H]1O2` [endothall A, reference compound]?
Answer: phosphatase activity of immunoprecipitated PP2A (general intracellular pool) (PP2A): significantly reduced phosphatase activity; effect of PPP inhibitor pretreatment on sodium selenate induced Akt Ser473 dephosphorylation (Akt): completely blocked sodium selenate induced Akt dephosphorylation

Question: `OO` [hydrogen peroxide] was tested. Which “generation of intracellular oxygen free radicals” value ([1]; hydrogen peroxide 500 μM, 10 min) did it give?
Answer: The value was “marked increase in the generation of intracellular oxygen free radicals”.

Question: What about the “effect of hydrogen peroxide on sodium selenate induced reduction of Akt phosphorylation” value (Akt; PC3 cells, hydrogen peroxide 0.25 mM for 10 min) of the same compound?
Answer: Its value is “unaffected”.

Question: And the “effect of hydrogen peroxide on sodium selenate induced reduction of Akt phosphorylation” value (Akt; PC3 cells, hydrogen peroxide 1 mM for 10 min)?
Answer: Its value is “completely abolished the dephosphorylating effect of sodium selenate”.

Question: And the “number of free sulfhydryl groups in PP2A” value [2]?
Answer: Its value is “significantly reduced the number of free sulfhydryl groups”.

Question: For `C=C1[C@@H](O)[C@@H]2O[C@]3(CC[C@H](/C=C/[C@@H](C)[C@@H]4CC(C)=C[C@@]5(O[C@H](C[C@@](C)(O)C(=O)O)CC[C@H]5O)O4)O3)CC[C@H]2O[C@@H]1[C@@H](O)C[C@H](C)[C@H]1O[C@@]2(CCCCO2)CC[C@H]1C` [okadaic acid], which “PP2A phosphatase activity (pNPP)” value ([3]; 0.05 U PP2A dimer, 30 min at 37° C., sodium selenate 5 mM, okadaic acid 500 nM) is on record?
Answer: The value was “completely abolished”.

Question: What about the “effect of PPP inhibitor pretreatment on sodium selenate induced Akt Ser473 dephosphorylation” value (Akt; PC3 cells, inhibitor 30 min (okadaic acid 500 nM, endothall A 100 μM, tautamycin 500 nM, calyculin A 2 nM, cyclosporine A 400 ng/ml), then sodium selenate 500 μM 1 h) of the same compound?
Answer: The value was “completely blocked sodium selenate induced Akt dephosphorylation”.

Question: What about the “effect of pretreatment on the sodium selenate induced reduction of Akt phosphorylation” value (Akt; PC3 cells, okadaic acid 5 nM 30 min, then sodium selenate 500 μM 1 h) of the same compound?
Answer: The value was “unaffected”.

Question: What about the “Akt Ser473 phosphorylation in non-selenate controls” value (Akt; PC3 cells, okadaic acid 1000 nM) of the same compound?
Answer: The value was “boosts Akt phosphorylation in non-selenate controls”.

Question: What about the “effect of pretreatment on the sodium selenate induced reduction of Akt phosphorylation” value (Akt; PC3 cells, okadaic acid 1000 nM 30 min, then sodium selenate 500 μM 1 h) of the same compound?
Answer: Its value is “completely abolishes the inhibitory effect of sodium selenate”.

Question: What about the “p70S6K phosphorylation on Thr389” value (p70S6K) of the same compound?
Answer: Its value is “boosts the level of phosphorylation observed”.

Question: With `O=[Se]=O` [selenium dioxide] as the compound, how does the “Akt activation: ratio of phosphorylated Akt to total Akt versus control” value (“Akt activation: ratio” below) (Akt) read?
Answer: Its value is “induce activation of Akt above control (con) levels”.

Question: How did the “Akt activation: ratio” value (Akt) turn out when `S=[Se]=S` [selenium sulfide] was run?
Answer: Its value is “induce activation of Akt above control (con) levels”.

Question: `N[C@@H](C[SeH])C(=O)O` [selenocysteine] was tested. Which “Akt activation: ratio” value (Akt) did it give?
Answer: Its value is “induce activation of Akt above control (con) levels”.

Question: Which results are given for `C[Se]CC[C@H](N)C(=O)O` [selenomethionine, reference compound]?
Answer: PP2A phosphatase activity, pNPP as substrate ([3]; 5 mM of each selenium compound): neither sodium selenite nor selenomethionine significantly affected PP2A phosphatase activity; PP2A phosphatase activity, serine phosphopeptide as substrate (PP2A A-C dimer): neither sodium selenite nor selenomethionine significantly affected PP2A phosphatase activity; Akt phosphorylation at Ser473 (Akt; PC3 cells, 500 μM of each compound, various timepoints): did not affect the level of Akt phosphorylation; also recorded: did not affect the level of phosphorylation of Akt

Question: For `O=[Se](O)O` [selenous acid], which “Akt activation: ratio” value (Akt) is on record?
Answer: Its value is “induce activation of Akt above control (con) levels”.
